This is an account of results in ChEMBL document CHEMBL1145844 (J Med Chem, 2003).

Each structure is given as a SMILES string.

In assay [1] the target is T1, Mu-type opioid receptor (Homo sapiens, UniProt P35372). The experiment in a line: % stimulation of [35S]GTP-gamma-S, binding in recombinant human Opioid receptor mu 1 transfected into CHO cells. It counts as functional, cell-based.
The target in assay [2] is Opioid receptors; mu & delta (Homo sapiens, UniProt P41143+P35372). As to the kind of experiment: Ratio of mu/delta-opioid receptors Binding affinity. In kind it is protein assay.
For assay [3], the target named is T2, Kappa-type opioid receptor (Homo sapiens, UniProt P41145). As to the kind of experiment: Binding affinity in recombinant human Opioid receptor kappa 1 transfected into chinese hamster ovary cells by displacing [3H]U-69593 radioligand. In kind it is cell-based.
Assay [4] addresses T1, Mu-type opioid receptor. As to the kind of experiment: Effective concentration agonistic activity towards Opioid receptor mu 1. It counts as functional.
Assay [5] deals with Opioid receptors; delta & kappa (Homo sapiens, UniProt P41145+P41143). As to the kind of experiment: Ratio of kappa/delta-opioid receptors Binding affinity. In kind it is protein assay.
For assay [6], the target named is T2, Kappa-type opioid receptor. As to the kind of experiment: % stimulation of [35S]GTP-gamma-S, binding of compound in recombinant human Opioid receptor kappa 1 transfected into CHO cells. It counts as functional, cell-based. On the technique in general: Binding of GTPγS marks nucleotide exchange on a G protein.
Assay [7] addresses T3, Delta-type opioid receptor (Homo sapiens, UniProt P41143). The experiment in a line: Binding affinity for human Opioid receptor delta 1 transfected into chinese hamster ovary cells by displacing [3H]CI-DPDPE radioligand. It counts as cell-based.
In assay [8] the target is T1, Mu-type opioid receptor. The experiment in a line: Binding affinity for human Opioid receptor mu 1 transfected into chinese hamster ovary cells by displacing [3H]DAMGO radioligand. It counts as cell-based.
Assay [9] addresses T2, Kappa-type opioid receptor. As to the kind of experiment: Agonistic activity towards opioid receptor kappa 1. It counts as functional.
In assay [10] the target is T3, Delta-type opioid receptor. The experiment in a line: Agonistic activity towards Opioid receptor delta 1. In kind it is functional.
Assay [11] deals with T3, Delta-type opioid receptor. The experiment in a line: % stimulation of [35S]GTP-gamma-S, binding in recombinant human Opioid receptor delta 1 transfected into CHO cells. It counts as functional, cell-based.
The target of assay [12] is T2, Kappa-type opioid receptor. The experiment in a line: Agonistic activity towards Opioid receptor kappa 1. In kind it is functional.

T2 sequence (P41145 whole entry): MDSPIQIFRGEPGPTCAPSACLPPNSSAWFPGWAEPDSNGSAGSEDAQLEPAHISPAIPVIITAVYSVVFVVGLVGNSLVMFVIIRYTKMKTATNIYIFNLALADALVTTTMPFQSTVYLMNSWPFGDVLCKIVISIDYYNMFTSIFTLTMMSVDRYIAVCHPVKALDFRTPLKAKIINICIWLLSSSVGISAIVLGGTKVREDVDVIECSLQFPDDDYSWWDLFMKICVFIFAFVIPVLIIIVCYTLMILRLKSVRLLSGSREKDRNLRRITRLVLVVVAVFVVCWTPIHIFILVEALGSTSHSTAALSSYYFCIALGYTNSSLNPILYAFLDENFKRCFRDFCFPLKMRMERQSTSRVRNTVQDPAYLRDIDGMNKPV
T1 sequence (P35372 whole entry): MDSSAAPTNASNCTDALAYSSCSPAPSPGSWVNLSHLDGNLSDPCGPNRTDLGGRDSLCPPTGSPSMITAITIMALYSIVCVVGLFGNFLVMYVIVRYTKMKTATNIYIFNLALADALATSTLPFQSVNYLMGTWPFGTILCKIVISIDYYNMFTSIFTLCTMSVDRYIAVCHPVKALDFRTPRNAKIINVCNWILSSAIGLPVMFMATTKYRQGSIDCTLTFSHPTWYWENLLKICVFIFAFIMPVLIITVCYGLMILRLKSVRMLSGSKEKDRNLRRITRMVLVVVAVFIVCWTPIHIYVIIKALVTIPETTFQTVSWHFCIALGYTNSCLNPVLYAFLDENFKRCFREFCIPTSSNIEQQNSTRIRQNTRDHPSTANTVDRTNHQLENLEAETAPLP
T3 sequence (P41143 whole entry): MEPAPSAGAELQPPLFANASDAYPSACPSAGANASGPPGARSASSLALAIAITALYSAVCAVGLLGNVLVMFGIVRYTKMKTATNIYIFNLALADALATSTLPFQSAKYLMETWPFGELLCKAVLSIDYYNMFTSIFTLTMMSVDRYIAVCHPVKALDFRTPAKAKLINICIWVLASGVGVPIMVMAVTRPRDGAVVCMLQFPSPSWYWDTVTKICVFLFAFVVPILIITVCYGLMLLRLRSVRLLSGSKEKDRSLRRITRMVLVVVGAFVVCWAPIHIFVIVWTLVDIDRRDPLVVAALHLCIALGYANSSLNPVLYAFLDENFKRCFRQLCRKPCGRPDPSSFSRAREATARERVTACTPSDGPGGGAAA

Broadly, the EC50 is the concentration that produces a half-maximal response. As to `C/C=C1\C[C@@]23Cc4c([nH]c5ccccc45)[C@@H]1[C@@]21CCN(C)C3Cc2ccc(OC)c(O)c21`, the Stimulation in [1] worked out at 41%; in [6] it was 36%. The Ki in assay [2] worked out at 1.5; in [3], 239 nM; in assay [5], 2.9; in assay [7], 82.5 nM; in assay [8] it was 122 nM. Also, the results for the EC50 in assay [4], in [9] and in assay [10] were 1640 nM, 2210 nM and 221 nM, respectively.
With `COc1ccc2c(c1O)[C@]13CCN(C)C(C2)[C@@]12C/C(=C\c1ccccc1)[C@@H]3c1[nH]c3ccccc3c1C2`, the Stimulation in assay [1] was 110%; in assay [11] it was 87%; in [6], 83%. Moreover, the Ki in assay [2] came to 0.4; in [3] it was 34.6 nM; in assay [5] it was 2.2; in [7], 15.9 nM; in assay [8], 6.3 nM. Further, the EC50 worked out at 44.7 nM in [4], 323 nM in assay [12] and 42.6 nM in [10].
Take `COc1ccc2c(c1O)[C@]13CCN(C)C(C2)[C@@]12CC(=C(C)C)[C@@H]3c1[nH]c3ccccc3c1C2`: the Stimulation was found to be 52% in [1] and 44% in assay [6]. Further, the Ki in assay [2] turned out to be 3.2; in [3], 28.4 nM; in [5], 0.3; in assay [7], 103 nM; in assay [8], 330 nM. Also, the EC50 in [4] came to 1020 nM; in assay [12], 866 nM; in [10], 211 nM.
`CN1CC[C@]23c4c5ccc(O)c4O[C@@]2(C)c2[nH]c4ccccc4c2C[C@@]3(C/C=C/c2ccccc2)C1C5`: the Stimulation in [1] is 85%; in [11] it was 79%; in assay [6] it was 60%. Moreover, the Ki in assay [2] came out at 3.5; in assay [3] it was 94.2 nM; in assay [5], 7.5; in [7], 12.5 nM; in assay [8] it was 43.8 nM. Moreover, the values for the EC50 in [4], in [12] and in assay [10] were 804 nM, 2050 nM and 21.8 nM, respectively.
Regarding `COc1ccc2c(c1O)[C@]13CCN(C)C(C2)[C@]12CCC(=O)[C@H]3/C(=C(\C)c1ccccc1)C2`, the Stimulation was 108% in assay [1], 108% in assay [11] and 116% in [6]. For the same molecule, the Ki in assay [2] amounted to 0.8; in assay [3], 0.14 nM; in assay [5], 0.02; in [7] it was 5.66 nM; in [8] it was 4.54 nM. Moreover, the values for the EC50 in assay [4], in [12] and in [10] were 15.2 nM, 3.38 nM and 72.3 nM, respectively.
With `COc1ccc2c(c1O)[C@]13CCN(C)C(C2)[C@@]12C/C(=C(/C)c1ccccc1)[C@@H]3c1[nH]c3ccccc3c1C2`, the Stimulation was determined as 144% in assay [1], 168% in assay [11] and 97% in assay [6]. In addition, the Ki is 0.6 in assay [2]; 0.61 nM in assay [3]; 0.03 in [5]; 23.2 nM in assay [7]; 13.4 nM in assay [8]. In addition, the EC50 stood at 139 nM in [4], 82.4 nM in [12] and 368 nM in assay [10].
Consider `COc1ccc2c(c1O)[C@]13CCN(C)C(C2)[C@]12CCC(=O)[C@H]3/C(=C/c1ccccc1)C2`, for which the Stimulation in assay [1] was 123%; in assay [11], 80%; in assay [6], 85%. In addition, the Ki in [2] is 0.08; in assay [3] it was 0.2 nM; in assay [5] it was 0.04; in [7] it was 5.5 nM; in [8], 0.43 nM. The EC50 in [4] was found to be 6.7 nM; in assay [12], 17.5 nM; in [10], 4.19 nM.
Turning to `CC(C)=CC[C@@]12Cc3c([nH]c4ccccc34)[C@]3(C)Oc4c(O)ccc5c4[C@]13CCN(C)C2C5`, the Stimulation is 72% in assay [1], 43% in assay [11] and 31% in assay [6]. Besides, the Ki in [2] was 4.9; in assay [3], 440 nM; in assay [5], 8.6; in assay [7], 51.4 nM; in assay [8], 254 nM. For the same molecule, the figures for the half-maximal effective concentration (EC50) in assay [4], in assay [12] and in assay [10] were 1200 nM, 945 nM and 90.1 nM, respectively.
